Read-outs that look alike come from different tables or passages of the source.
Legend:
[1] = test system: VEGF production in U251 human glioma cell; test: VEGF production suppressing action under low oxygen, ELISA; format: cell-based; details: for VEGF production suppressing action: IC50: U251, low oxygen (2% O2) incubator 18 hours; for VEGF production suppression, in words: U251, low oxygen stimulation
Experimental: U251 human glioma cell cultured in DULBECCO-modified eagle medium (DMEM; manufactured by SIGMA Co., Ltd.) containing 10% fetal calf serum, penicillin (100 unit/ml) and streptomycin (100 μg/ml) was dispensed in 96-well plates by 4×10^4 cells/well. After culturing at 37° C. overnight in a CO2 incubator (5% CO2), the media were removed, and 180 μl of the above-mentioned incubation solution was charged. After adding 20 μL of the above-mentioned incubation solution containing the test compound diluted with 3-fold succession, they were incubated in a low oxygen (2% O2) incubator for 18 hours. The supernatants thereof were measured by an ELISA kit (Immunobiology Research Institute).
Concentration at which the amount of VEGF expressed by low oxygen stimulation was suppressed to 50% (IC50 value) was determined and results are shown in Table 9. […] The activities of 11107F and 11107G were very weak.

[2] = test system: transcription from VEGF promoter; test: VEGF transcription-suppressing activity, VEGF-PLAP reporter in U251/1-8 cell; format: cell-based; details: Homo sapiens, U-251, U251/1-8 cell, PLAP activity, low oxygen 18 hours
Method in brief: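 U251 glioma clone stably carrying a ~2.3 kb human VEGF promoter–secreted PLAP reporter, 4×10^4 cells/well, exposed to 3-fold dilutions of compound for 18 h under low oxygen. Supernatant PLAP read by chemiluminescence at pH 10.0; IC50 = 50% suppression, normoxia 0%, hypoxia 100%.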

[3] = Solubility (physico-chemical properties of the 11107 analogues); details: in dimethylsulfoxide, pyridine, methanol, acetone and water
[4] = test system: P388 mouse leukemia cell; details: Seki-Asano M. et al, J. Antibiotics Vol. 47, 1395-1401, 1994; cited from earlier work
[5] = test system: human breast cancer BSY-1 cell; test: Solid cancer proliferation suppressing action, subcutaneous transplant; format: in vivo, mice; details: 10 mg/kg once intravenous
Experimental: In order to study solid cancer proliferation suppressing action of 11107B in vivo, human breast cancer BSY-1 cell was transplanted to the subcutaneous body sides of mice. The animals were grouped so that the average of the volumes of the respective groups became uniform, when it reached about 100 mm^3. Control group was made as 10 mice and 11107B-administering groups were made as 5 mice. 11107B was administrated for the 11107B-administering groups once by intravenous injection so as to be 10 mg/kg, and a vehicle was administered to the control group. The tumor volumes on the fifth day, eighth day, 12th day and 15th day were measured, and relative tumor volumes were determined setting the tumor volume at the initiation of administration as 1.

[6] = read-out: IC50 values of VEGF transcription-suppressing activity (range given)
[7] = read-out: VEGF transcription suppressing activity (IC50: nM)

Compound | IC50 [2, 6] [nM] | Solubility [3] | further results
CCC(=O)C(C)C1OC1CC(C)/C=C/C=C(\C)C1OC(=O)CC(O)CCC(C)(O)C(OC(C)=O)/C=C/C1C (stereo not drawn) [11107 C] | – | – | VEGF production suppressing action: IC50 [1]: 3.0 ng/mL
CCC(=O)C(C)C1OC1CC(C)/C=C/C=C(\C)C1OC(=O)CC(O)CCC(C)(O)C(OC(C)=O)/C=C/C1C (stereo not drawn) [11107C, (8E,12E,14E)-7-Acetoxy-3,6-dihydroxy-6,10,12,16,20-pentamethyl-21-oxo-18,19-epoxytricosa-8,12,14-trien-11-olide] | 1 to 100 | – | VEGF production suppression, in words [1]: strong successive to 11107B; IC50 [2, 7]: 8.2 nM
CCC(O)C(C)C1OC1CC(C)(O)/C=C/C=C(\C)C1OC(=O)CC(O)CCC(C)(O)C(O)/C=C/C1C (stereo not drawn) [11107F] | – | – | VEGF production suppression, in words [1]: very weak
CCC(O)CC1OC1CC(C)/C=C/C=C(\C)C1OC(=O)CC(O)CCC(C)(O)C(OC(C)=O)/C=C/C1C (stereo not drawn) [11107T] | 1 to 100 | soluble in dimethylsulfoxide, pyridine, methanol and acetone, and slightly soluble in water | –
CCC(=O)C(C)C1OC1CC(C)/C=C/C=C(\C)C1OC(=O)CC(O)/C=C/C(C)(O)C(OC(C)=O)/C=C/C1C (stereo not drawn) [11107AL] | 1 to 100 | soluble in dimethylsulfoxide, pyridine, methanol and acetone, and slightly soluble in water | –
CC(=O)OC1/C=C/C(C)C(/C(C)=C/C=C/C(C)C/C=C/C(C)C(O)C(C)O)OC(=O)CC(O)CCC1(C)O (stereo not drawn) [11107AJ] | 1 to 100 | soluble in dimethylsulfoxide, pyridine, methanol and acetone, and slightly soluble in water | –
CCC(O)C(C)C1OC1CC(C)/C=C/C=C(\C)C1OC(=O)CC(O)/C=C/C2(CO2)C(OC(C)=O)/C=C/C1C (stereo not drawn) [11107AN] | 1 to 100 | soluble in dimethylsulfoxide, pyridine, methanol and acetone, and slightly soluble in water | –
CCC(O)C(C)C1OC1CC/C=C/C=C(\C)C1OC(=O)CC(O)CCC(C)(O)C(OC(C)=O)/C=C/C1C (stereo not drawn) [11107U] | 1 to 100 | soluble in dimethylsulfoxide, pyridine, methanol and acetone, and slightly soluble in water | –
CCC(O)C(C)(O)C1OC1CC(C)/C=C/C=C(\C)C1OC(=O)CC(O)CCC(C)(O)C(OC(C)=O)/C=C/C1C (stereo not drawn) [11107E] | 1 to 100 | soluble in dimethylsulfoxide, pyridine, methanol and acetone, and slightly soluble in water | –
CCC(O)C(C)(O)C1OC1CC(C)/C=C/C=C(\C)C1OC(=O)CC(O)CCC(C)(O)C(OC(C)=O)/C=C/C1C (stereo not drawn) [11107 E] | – | – | VEGF production suppressing action: IC50 [1]: 36.3 ng/mL
CCC(O)C(C)C1OC1CC(C)/C=C/C=C(\C)C1OC(=O)CC(OC(C)=O)CCC(C)(O)C(OC(C)=O)/C=C/C1C (stereo not drawn) [11107M] | 1 to 100 | soluble in dimethylsulfoxide, pyridine, methanol and acetone, and slightly soluble in water | –
CCC(O)C(C)C1OC1CC(C)/C=C/C=C(\C)C1OC(=O)CC(O)/C=C/C(C)(OC(C)=O)C(OC(C)=O)/C=C/C1C (stereo not drawn) [11107AP] | 1 to 100 | soluble in dimethylsulfoxide, pyridine, methanol and acetone, and slightly soluble in water | –
CCC(O)C(C)C1OC1CC(C)/C=C/C=C(\C)C1OC(=O)CC(O)CCC(C)(O)C(O)/C=C/C1C (stereo not drawn) [11107 A] | – | – | VEGF production suppressing action: IC50 [1]: 111 ng/mL
CC(=O)OC1/C=C/C(C)C(/C(C)=C/C=C/C(C)CC(O)/C=C(\C)C(=O)C(C)O)OC(=O)CC(O)CCC1(C)O (stereo not drawn) [11107Q] | 1 to 100 | soluble in dimethylsulfoxide, pyridine, methanol and acetone, and slightly soluble in water | –
CCC(O)C(C)C1OC1CC(C)(O)/C=C/C=C(\C)C1OC(=O)CC(O)CCC(C)(O)C(OC(C)=O)/C=C/C1C (stereo not drawn) [11107D] | 1 to 100 | soluble in dimethylsulfoxide, pyridine, methanol and acetone, and slightly soluble in water | VEGF production suppression, in words [1]: strong successive to 11107B; IC50 [2, 7]: 6.6 nM
CCC(O)C(C)C1OC1CC(C)/C=C/C=C(\C)C1OC(=O)CC(O)CC(O)C(C)(O)C(OC(C)=O)/C=C/C1C (stereo not drawn) [11107K] | 1 to 100 | soluble in dimethylsulfoxide, pyridine, methanol and acetone, and slightly soluble in water | IC50 [2, 7]: 2.7 nM

Compound | IC50 [2, 6] [nM] | Solubility [3] | further results
CCC(O)C(C)C1OC1CC(C)/C=C/C=C(\C)C1OC(=O)CC(O)CC(OC(C)=O)C(C)(O)C(OC(C)=O)/C=C/C1C (stereo not drawn) [11107L] | 1 to 100 | soluble in dimethylsulfoxide, pyridine, methanol and acetone, and slightly soluble in water | –
CC(=O)OC1/C=C/C(C)C(/C(C)=C/C=C/C(C)CC2OC2C(C)C(O)C(C)O)OC(=O)CC(O)CC(O)C1(C)O (stereo not drawn) [11107AZ] | 1 to 100 | soluble in dimethylsulfoxide, pyridine, methanol and acetone, and slightly soluble in water | –
CC(=O)OC1/C=C/C(C)C(/C(C)=C/C=C/C(C)CC2OC2C(C)C(C)O)OC(=O)CC(O)CCC1(C)O (stereo not drawn) [11107J] | 1 to 100 | soluble in dimethylsulfoxide, pyridine, methanol and acetone, and slightly soluble in water | IC50 [2, 7]: 5.9 nM
CCC(OC)C(C)C1OC1C(O)C(C)/C=C/C=C(\C)C1OC(=O)CC(O)CCC(C)(O)C(OC(C)=O)/C=C/C1C (stereo not drawn) [FD895] | – | – | effect in an animal experiment using P388 mouse leukemia cell [4]: ineffective
CC(=O)OC1/C=C/C(C)C(/C(C)=C/C=C/C(C)CC2OC2C(C)C(O)C(C)O)OC(=O)CC(O)CCC1(C)O (stereo not drawn) [11107AW] | 1 to 100 | soluble in dimethylsulfoxide, pyridine, methanol and acetone, and slightly soluble in water | –
CCC(O)C(C)C1OC1C(O)C(C)/C=C/C=C(\C)C1OC(=O)CC(O)/C=C/C(C)(O)C(OC(C)=O)/C=C/C1C (stereo not drawn) [11107AX] | 1 to 100 | soluble in dimethylsulfoxide, pyridine, methanol and acetone, and slightly soluble in water | –
CCC(O)C(C)/C=C/CC(C)/C=C/C=C(\C)C1OC(=O)CC(O)CCC(C)(O)C(OC(C)=O)/C=C/C1C (stereo not drawn) [11107BI] | 1 to 100 | soluble in dimethylsulfoxide, pyridine, methanol and acetone, and slightly soluble in water | –
CCC1OC1(C)C(O)C(C)/C=C/C=C(\C)C1OC(=O)CC(O)CCC(C)(O)C(OC(C)=O)/C=C/C1C (stereo not drawn) [11107BG] | 1 to 100 | soluble in dimethylsulfoxide, pyridine, methanol and acetone, and slightly soluble in water | –
CCC(O)C(C)C1OC1CC(C)/C=C/C=C(\C)C1OC(=O)CC(O)CCC2(CO2)C(OC(C)=O)/C=C/C1C (stereo not drawn) [11107AM] | 1 to 100 | soluble in dimethylsulfoxide, pyridine, methanol and acetone, and slightly soluble in water | IC50 [2, 7]: 2.6 nM
CCC(O)C(C)C1OC1CC(C)(O)/C=C/C=C(\C)C1OC(=O)CC(O)CCC(C)(O)C(OC(C)=O)/C=C/C1C (stereo not drawn) [11107 D] | – | – | VEGF production suppressing action: IC50 [1]: 3.2 ng/mL
CCC1OC1C(O)C(C)/C=C/C=C(\C)C1OC(=O)CC(O)CCC(C)(O)C(OC(C)=O)/C=C/C1C (stereo not drawn) [11107AY] | 1 to 100 | soluble in dimethylsulfoxide, pyridine, methanol and acetone, and slightly soluble in water | –
CCC(O)C(C)(O)C1OC1CC(C)/C=C/C=C(\C)C1OC(=O)CC(O)CCC(C)(O)C(O)/C=C/C1C (stereo not drawn) [11107G] | – | soluble in dimethylsulfoxide, pyridine, methanol and acetone, and slightly soluble in water | VEGF production suppression, in words [1]: very weak
CCC(O)C(C)C1OC1CC(C)/C=C/C=C/C1OC(=O)CC(O)CCC(C)(O)C(OC(C)=O)/C=C/C1C (stereo not drawn) [11107W] | 1 to 100 | soluble in dimethylsulfoxide, pyridine, methanol and acetone, and slightly soluble in water | –
CCC(O)C(C)C1OC1CC(C)/C=C/C=C(\C)C1OC(=O)CC(O)CC(O)C(C)C(OC(C)=O)/C=C/C1C (stereo not drawn) [11107Y] | 1 to 100 | soluble in dimethylsulfoxide, pyridine, methanol and acetone, and slightly soluble in water | –
CCC(O)C(C)C1OC1CC(C)/C=C/C=C(\C)C1OC(=O)CC(O)CCC(C)(O)C(OC(C)=O)/C=C/C1C (stereo not drawn) [11107 B] | – | – | VEGF production suppressing action: IC50 [1]: 0.8 ng/mL; relative tumor volume ([5]; day 1 after the administration (volume at initiation of administration set as 1)): 1; relative tumor volume ([5]; day 5 after the administration): 1.08; relative tumor volume ([5]; day 8 after the administration): 1.28; relative tumor volume ([5]; day 12 after the administration): 1.40; relative tumor volume ([5]; day 15 after the administration): 1.70
